Measurements reported in patent EP1377579B1 (Aventis Pharmaceuticals Inc., priority 2000, dated 2002).
Where two headings read alike, the source gives them in different places.

How the values were obtained:
[1] = tested on: neuronally differentiated PC12 cells, rat sympathetic neurons; settings: cited from earlier work; for concentration of maximal protection from death: camptothecin-treated PC12 cells or rat sympathetic neurons; for cell death: camptothecin-treated, at day 6
cortical neuronal death = settings: cited from earlier work; for IC50: Park et al. 1997, read-out: IC50, protection against camptothecin-induced cortical neuronal death
MDA-MB-435 = test: In vitro proliferation assay (MTT), MDA-MB-435; type: cell-based, human; settings: Homo sapiens
Summary of the method: (§1)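 Cells plated at 1000 to 2500 cells/well, allowed to attach overnight, then exposed to compounds for 3 days. Viable cells estimated by MTT dye, solubilized in DMSO, absorbance at 570 nm; IC50 taken from raw data.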

NCI-H460 = test: In vitro proliferation assay (MTT), NCI-H460; type: cell-based; settings: Homo sapiens
Summary of the method: (§2)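 Cells were plated at 1000 to 2500 cells/well and allowed to attach overnight before compound exposure. After 3 days, viable cells were estimated with MTT dye for 2 to 4 hr at 37 C, then solubilized in DMSO and read at 570 nm. IC50s were derived from MTT or SRB raw data.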

HL-60 = test: In vitro proliferation assay (MTT), HL-60; type: cell-based; settings: Homo sapiens
Summary of the method: as §2

Jurkat = test: In vitro proliferation assay (MTT), Jurkat; type: cell-based; settings: Homo sapiens, MTT assay, value (SD, n) where given, read-out: Jurkat Leuk. (IC50 µM)
Summary of the method: as §2

PC-3 = test: In vitro proliferation assay (MTT), PC-3; type: cell-based, human; settings: Homo sapiens
Summary of the method: as §1

Colo-205 = test: In vitro proliferation assay (MTT), Colo-205; type: cell-based; settings: Homo sapiens
Summary of the method: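 Colo-205 cells were seeded at 1000–2500 cells/well and allowed to attach overnight, then exposed to compound for 3 days. Viable cells were measured by MTT reduction (2–4 h, 37 °C), with DMSO-solubilised dye read at 570 nm. IC50 was derived from concentration–response data.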

cdk4/cyclin D1 = cdk4/cyclin D1 (Homo sapiens, UniProt P11802); test: Cyclin-dependent kinase assay, cdk4/cyclin D1; type: biochemical; settings: cyclin D1/cdk4; GST-pRb substrate, 10 µM ATP
[2] = tested on: PC-3 Human Prostate Tumors; test: PC-3 human prostate tumor xenograft in nude mice; type: in vivo; parameters: unit not given here; settings: Table 5
Description: (§3) Antitumor efficacy is assessed using two subcutaneous human tumor xenograft models. The studies are performed using conventional assay techniques. Briefly, HL-60 (leukemia, 5 x10^5 cells) and PC-3 (prostate, 5 x 10^6 cells) tumor cells are injected subcuateously into nude mice (Crl-CD1-Br-nu, Charles River Laboratory, Wilmington, MA). Dosing with compounds began when tumors reached 50 to 100 mm^3. The dose route/schedule for the test compounds is ip/qld (5x/wk). The test doses are set based on the maximum tolerated dose (MTD). […] The test doses for the efficacy studies are set at 1/3rd the MTD (low dose) and the MTD (high dose). The results are shown in Tables 4 and 5 (HL-60, leukemia) (PC-3, prostate cancer). The length of the treatment phase is dependent on the tumor growth rate for the two models. This treatment phase is typically about 3 weeks for the HL-60 model and about 5 weeks for the PC-3 model. […] Dosing with flavopiridol is for the same time frame as for the experimental compounds in both xenograft models. Tumor volume (twice weekly) and body weights (once weekly) are monitored throughout the course of the treatment phase of the experiment. Tumor sizes are measured by external caliper measurements of protruding tumor. Volumes are calculated using the following formula: volume =½ (a x b2), where b is the smaller of two perpendicular diameters.

HL-60 Human Leukemia = test: HL-60 human leukemia xenograft in nude mice; type: in vivo; settings: Table 5
Description: as §3

[3] = Red blood cell binding, human whole blood; type: in vitro ADME; settings: 30 minutes at 37°C, 500 ng/ml
Description: (§4) Compounds, including one positive control, are assessed for red blood cell (RBC) uptake, using a modified procedure based on the protocol reported in Sun, J.X.S., et al. High-performance liquid chromatographic analysis, plasma protein binding and red blood cell partitioning of phenprobamate. Biopharmaceutics and Drug Disposition, 8 (1987) 341-351.
(§5) Briefly, RBC uptake is evaluated by comparison of the levels in spiked plasma (n=3) and plasma isolated from spiked whole blood (n=3). Compounds are incubated with human and mouse whole blood, respectively, for 30 minutes at 37°C using a nominal concentration of 500 ng/ml. Following centrifugation, the plasma is removed and submitted for analysis. Each compound is also spiked into blank plasma at a nominal concentration of 500 ng/ml, and submitted for analysis. Levels in the two plasma samples (Cp' and Cp in the equation below) and the blood hematocrit are used to determine the red blood cell to plasma ratio (Crbc/Cp). (Crbc)/(Cp) = (Cpʹ)/(Cp•H)-((1-H))/(H) [formula] In equation 1, Cp' is the level of drug in the spiked "blank" plasma, Cp is the level of drug in the plasma of spiked whole blood, and H is the hematocrit. The hematocrit values are determined as 0.4 for human whole blood and 0.41 for mouse whole blood. The samples are analyzed with ESI LC/MS, using positive ion detection with an internal standard.
(§6) The red blood cell to plasma ratio is determined for each compound using equation 1. Tables 6 and 7 summarize the respective mean Crbc/Cp values and standard deviations for mouse and human whole blood, respectively, in descending order based on the red blood cell to plasma ratio, where"*" denotes Positive Control, and "ND" denotes Not Determined. MDL 108552 is included as a positive control for red blood cell uptake. Table 6. Red Blood Cell to Plasma Ratio for compounds in mouse whole blood

in vivo = settings: male, Hsd:ICR (CD-1), mouse, plasma
cdk1/cyclin B = cdk1/cyclin B (Homo sapiens, UniProt P06493); test: Cyclin-dependent kinase assay, cdk1/cyclin B; settings: CDK1 IC50, nM, Histone H1, 10 µM ATP
cdk2/cyclin E = cdk2/cyclin E (Homo sapiens, UniProt P24941); test: Cyclin-dependent kinase assay, cdk2/cyclin E; settings: CDK2 IC50, nM, GST-pRb substrate, 10 µM ATP
[4] = Bioavailability experiment in mice given single intravenous cassette doses; settings: for Cls: mice plasma, single intravenous cassette dose
[5] = Red blood cell binding, mouse whole blood; type: in vitro ADME; settings: 30 minutes at 37°C, 500 ng/ml
Description: as §4, §5, §6

[6] = camptothecin-treated neuronal cells
[7] = MDA-MB-435, read-out: MB-435 Breast (IC50 µM)
[8] = NCI-H460, read-out: H-460 Lung (IC50 µM)
[9] = PC-3, read-out: PC-3 Prostate (IC50 µM)
[10] = COLO 205, read-out: Colo-205 Colon (IC50 µM)

Chain of cdk1/cyclin B (P06493 whole entry): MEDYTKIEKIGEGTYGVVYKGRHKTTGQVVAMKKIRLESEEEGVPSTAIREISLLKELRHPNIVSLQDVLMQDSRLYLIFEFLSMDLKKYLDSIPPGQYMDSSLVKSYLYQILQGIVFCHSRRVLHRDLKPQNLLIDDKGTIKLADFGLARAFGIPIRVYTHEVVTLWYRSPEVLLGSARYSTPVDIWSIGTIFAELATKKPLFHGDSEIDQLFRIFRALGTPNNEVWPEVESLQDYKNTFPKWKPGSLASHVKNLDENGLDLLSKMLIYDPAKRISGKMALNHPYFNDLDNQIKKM
Chain of cdk1/cyclin B (P14635 whole entry partner): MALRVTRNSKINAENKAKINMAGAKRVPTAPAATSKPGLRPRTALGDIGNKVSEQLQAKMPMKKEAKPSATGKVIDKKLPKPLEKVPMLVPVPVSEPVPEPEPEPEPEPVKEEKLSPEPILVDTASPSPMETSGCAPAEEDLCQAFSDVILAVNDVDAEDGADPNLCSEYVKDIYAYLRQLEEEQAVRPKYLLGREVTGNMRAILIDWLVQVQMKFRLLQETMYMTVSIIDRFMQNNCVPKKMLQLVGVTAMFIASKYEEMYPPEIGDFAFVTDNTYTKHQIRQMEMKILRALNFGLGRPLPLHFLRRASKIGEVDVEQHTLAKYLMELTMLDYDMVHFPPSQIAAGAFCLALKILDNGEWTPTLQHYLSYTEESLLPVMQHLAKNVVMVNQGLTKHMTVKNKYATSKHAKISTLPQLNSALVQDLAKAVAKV
Chain of cdk4/cyclin D1 (P11802 whole entry): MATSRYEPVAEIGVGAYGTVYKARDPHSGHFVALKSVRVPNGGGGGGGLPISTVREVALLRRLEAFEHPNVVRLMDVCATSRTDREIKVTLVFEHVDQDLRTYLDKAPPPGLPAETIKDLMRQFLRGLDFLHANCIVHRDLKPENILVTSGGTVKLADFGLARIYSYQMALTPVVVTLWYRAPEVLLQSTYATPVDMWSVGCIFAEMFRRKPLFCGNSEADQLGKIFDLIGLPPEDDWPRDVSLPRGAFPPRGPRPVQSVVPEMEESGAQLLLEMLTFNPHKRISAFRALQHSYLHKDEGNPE
Chain of cdk4/cyclin D1 (P24385 whole entry partner): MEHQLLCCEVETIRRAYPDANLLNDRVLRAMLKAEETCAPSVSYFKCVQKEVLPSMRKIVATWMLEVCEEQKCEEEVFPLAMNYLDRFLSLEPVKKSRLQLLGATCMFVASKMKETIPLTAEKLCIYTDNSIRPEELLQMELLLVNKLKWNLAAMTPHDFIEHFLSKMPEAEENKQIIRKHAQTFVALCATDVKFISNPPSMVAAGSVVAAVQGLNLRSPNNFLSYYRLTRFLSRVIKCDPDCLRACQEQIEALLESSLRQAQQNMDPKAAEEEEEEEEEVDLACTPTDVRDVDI

Row | Structure (SMILES) | concentration of maximal protection from death [1] [µM] | cell death [1] | IC50 (cortical neuronal death) [µM] | IC50 (cdk4/cyclin D1) [µM] | IC50 (MDA-MB-435; [7]) [µM] | IC50 (NCI-H460; [8]) [µM] | IC50 (PC-3; [9]) [µM] | PC-3 Mean Vol. ± SD ([2]; dose 1 mg/kg ip) | PC-3 Mean Vol. ± SD ([2]; dose 3 mg/kg ip) | HL60 Mean Vol. ± SD (HL-60 Human Leukemia; dose 1 mg/kg ip) | HL60 Mean Vol. ± SD (HL-60 Human Leukemia; dose 3 mg/kg ip) | Mean Red Blood Cell to Plasma Ratio [3] | IC50 (Colo-205; [10]) [µM] | AUC(0-inf) (in vivo; iv, 3 mg/kg) [ng·h/mL] | Cmax (in vivo; iv, 3 mg/kg) [ng/mL] | half-life (in vivo; iv, 3 mg/kg) [h] | IC50 (cdk1/cyclin B) [nM] | IC50 (cdk2/cyclin E) [nM] | also measured
1 | Cn1cnc2c(NCc3ccccc3)nc(NCCO)nc21 [Olomoucine, 6-(benzylamino)-2-[(2-hydroxyethyl)amino]-9-methylpurine] | 200 | approximately 30% | 100 |  |  |  |  |  |  |  |  |  |  |  |  |  |  |  | 
2 | Cn1cnc2nc(NCCO)nc(NCc3ccccc3)c21 [iso-olomoucine] |  |  |  |  |  |  |  |  |  |  |  |  |  |  |  |  |  |  | prevention of cell death [1, 6]: failed to prevent the cell death; prevention of cell death (cortical neuronal death; [6]): failed to prevent the cell death
3 | CN1CC[C@H](c2c(O)cc(O)c3c(=O)cc(-c4ccccc4Cl)oc23)[C@H](O)C1 [Flavopiridol, flavopiridol, reference compound] | 1 | approximately 30% | 0.1 |  |  |  |  |  |  |  |  |  |  |  |  |  |  |  | IC50 (MDA-MB-435; MDA-MB-435, MTT assay, value (SD, n) where given, read-out: MB-435 Breast (IC50 µM)): 0.09 µM; IC50 (NCI-H460; NCI-H460, MTT assay, value (SD, n) where given, read-out: H-460 Lung (IC50 µM)): 0.07 µM; IC50 (HL-60; HL-60, MTT assay, value (SD, n) where given, read-out: HL-60 Leuk. (IC50 µM)): 0.02 µM; IC50 (Jurkat): 0.08 µM; IC50 (PC-3; PC-3, MTT assay, value (SD, n) where given, read-out: PC-3 Prostate (IC50 µM)): 0.08 µM; IC50 (Colo-205; COLO 205, MTT assay, value (SD, n) where given, read-out: Colo-205 Colon (IC50 µM)): 0.03 µM
4 | Cc1ccc(OC(=O)N2CCC(Nc3nc(N[C@H]4CC[C@H](N)CC4)nc4c3ncn4C3CCCC3)CC2)cc1.Cl.Cl [compound 82, trans-4-[2-(4-Amino-cyclohexylamino)-9-cyclopentyl-9H-purin-6-ylamino]-piperidine-1-carboxylic acid p-tolyl ester dihydrochloride] |  |  |  | 0.131 | 0.06 | 0.08 | 0.12 | 810 ± 600 | 967 ± 407 | 5164 ± 55516 | 2841 ± 1845 | 5.8 | 0.06 | 944 | 1460 | 3 | 31 | 45 | IC50 (HL-60; HL-60, read-out: HL-60 Leuk. (IC50 µM)): 0.04 µM; concentration at 0.083 h (in vivo; intravenous, 3 mg/kg): 1460 ± 77.4 ng/mL; concentration at 0.25 h (in vivo; intravenous, 3 mg/kg): 875 ± 96.7 ng/mL; concentration at 0.5 h (in vivo; intravenous, 3 mg/kg): 370 ± 40 ng/mL; concentration at 1 h (in vivo; intravenous, 3 mg/kg): 134 ± 16.3 ng/mL; concentration at 3 h (in vivo; intravenous, 3 mg/kg): 37.5 ± 10.7 ng/mL; concentration at 6 h (in vivo; intravenous, 3 mg/kg): 14.5 ± 3.4 ng/mL; concentration at 8 h (in vivo; intravenous, 3 mg/kg): 12.3 ± 2.2 ng/mL; Cls ([4]; 3 mg/kg/compound (15 mg/kg Total Dose), Cassette #4): 53.0 mL/min/kg; Conc. in plasma ([4]; mice, single 15 mg/kg intravenous cassette dose (3 mg/kg/compound), Cassette #4, 24 h, BLQ = below assay quantification limit (approximately 1 ng/ml)): BLQ
5 | Cl.Cl.N[C@H]1CC[C@H](Nc2nc(NC3CCN(C(=O)Oc4ccccc4)CC3)c3ncn(C4CCCC4)c3n2)CC1 [compound 85, trans-4-[2-(4-Amino-cyclohexylamino)-9-cyclopentyl-9H-purin-6-ylamino]-piperidine-1-carboxylic acid phenyl ester dihydrochloride] |  |  |  | 0.065 | 0.03 | 0.06 | 0.06 | 912 ± 755 | 1208 ± 1247 | 3590 ± 2674 | 5215 ± 4068 | 7.1 | 0.03 | 467 | 843 | 2.3 | 26 | 8 | Mean Red Blood Cell to Plasma Ratio [5]: 6.1; concentration at 0.083 h (in vivo; iv, 18 mg/kg): 843 ± 124 ng/mL; concentration at 0.25 h (in vivo; iv, 18 mg/kg): 342 ± 45.1 ng/mL; concentration at 0.5 h (in vivo; iv, 18 mg/kg): 164 ± 15.7 ng/mL; concentration at 1 h (in vivo; iv, 18 mg/kg): 89 ± 21.5 ng/mL; concentration at 3 h (in vivo; iv, 18 mg/kg): 14.3 ± 7.1 ng/mL; concentration at 6 h (in vivo; iv, 18 mg/kg): 5.2 ± 1.9 ng/mL; concentration at 8 h (in vivo; iv, 18 mg/kg): 3.2 ± 0.8 ng/mL; Conc. (ng/ml) in plasma ([4]; Cassette #1, single 18 mg/kg intravenous cassette dose, mice, 24 h, BLQ = below assay quantification limit): BLQ; Cls ([4]; 3 mg/kg/compound (18 mg/kg Total Dose), Cassette #1): 107.1 mL/min/kg
